According to patent publication US9598459B2, “Pharmaceutical compositions and methods” (priority 2015, dated 2017):
In brackets after ≈: the same amount, converted by molar mass. Several values for one entry are separate records, joined by “and”; a condition that tells them apart may be missing. Equal values may be shown once. Read-outs that look alike come from different tables or passages of the source.

Experiments:
in vitro [1] = details: African green monkey
in vitro [2] = details: African green monkey, Cytotoxicity CC50
cytosolic GRs [3] = target: T1, cytosolic GRs (Homo sapiens, UniProt P04150); experiment: Binding to cytosolic glucocorticoid receptors
T1 sequence (P04150 1-777): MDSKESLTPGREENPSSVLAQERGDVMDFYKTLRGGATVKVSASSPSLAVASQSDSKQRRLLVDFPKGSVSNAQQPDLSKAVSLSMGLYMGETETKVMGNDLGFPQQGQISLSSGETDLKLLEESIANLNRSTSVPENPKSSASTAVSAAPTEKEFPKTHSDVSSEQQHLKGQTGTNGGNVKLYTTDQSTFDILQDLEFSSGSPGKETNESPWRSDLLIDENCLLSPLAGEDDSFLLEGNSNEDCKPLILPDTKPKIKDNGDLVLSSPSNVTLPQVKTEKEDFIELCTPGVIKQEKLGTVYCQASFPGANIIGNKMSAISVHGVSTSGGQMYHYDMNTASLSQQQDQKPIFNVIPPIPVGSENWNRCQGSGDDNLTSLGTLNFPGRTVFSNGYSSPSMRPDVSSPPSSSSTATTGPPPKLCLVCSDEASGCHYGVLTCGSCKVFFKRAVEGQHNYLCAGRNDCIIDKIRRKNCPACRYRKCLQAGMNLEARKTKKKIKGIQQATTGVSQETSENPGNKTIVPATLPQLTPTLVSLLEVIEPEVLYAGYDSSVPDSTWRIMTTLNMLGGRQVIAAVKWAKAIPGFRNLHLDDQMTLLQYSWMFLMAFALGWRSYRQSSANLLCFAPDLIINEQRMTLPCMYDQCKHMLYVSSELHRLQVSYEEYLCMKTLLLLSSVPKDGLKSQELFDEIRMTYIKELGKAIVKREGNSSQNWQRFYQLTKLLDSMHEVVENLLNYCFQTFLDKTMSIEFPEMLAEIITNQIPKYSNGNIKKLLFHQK

[4] = target: cytosolic progesterone receptors (PR) (Homo sapiens, UniProt P06401); details: Peeters et al., 2008; cited from earlier work
GR = GR (Mus musculus, UniProt P06537); details: cited from earlier work
MDCK = details: dog
cytosolic GRs [5] = target: T1, cytosolic GRs; details: Peeters et al., 2008; cited from earlier work
Tacaribe TRVL11573 = experiment: microbe, parasite or virus in culture; assay type: cell-based, Tacaribe virus; details: Mammarenavirus tacaribeense, Vero
Cytotoxicity on CCRF-CEM = details: human
[6] = Cytotoxicity on RD host cells; assay type: cell-based; details: human, RD cells
[7] = rats, twice daily 4 mg kg−1 po; cited from earlier work
HG23 = details: human
RAW267.4 = experiment: Toxicity in RAW267.4 cells (neutral red); details: Neutral Red (Toxicity)
OM-10.1 cells = experiment: Toxicity in OM-10.1 (Cell Titer 96); details: for TOXICITY VALUES (Cell Titer 96): SAMPLE 1-3, MEAN
[8] = test system: West Nile virus Kern 515, WN02; experiment: West Nile virus antiviral screen in Vero 76; assay type: cell-based
[9] = test system: Japanese encepahalitis virus SA-14; experiment: Japanese encephalitis virus antiviral screen in Vero 76; assay type: cell-based; details: JEV SA-14, Vero 76
HIV-1 LAV = experiment: Inhibition of inducible HIV-1 LAV replication in OM-10.1 (RT values); assay type: cell-based, human immunodeficiency virus type 1; details: for RT Values: SAMPLE 1-3, MEAN
CCRF-CEM = experiment: Cytotoxicity on CCRF-CEM; details: CCRF-CEM
RD = experiment: Cytotoxicity on RD host cells; assay type: cell-based
[10] = Visual (Cytopathic effect/Toxicity), unit from Conc. Range

Sequence of cytosolic progesterone receptors (PR) (P06401 whole entry): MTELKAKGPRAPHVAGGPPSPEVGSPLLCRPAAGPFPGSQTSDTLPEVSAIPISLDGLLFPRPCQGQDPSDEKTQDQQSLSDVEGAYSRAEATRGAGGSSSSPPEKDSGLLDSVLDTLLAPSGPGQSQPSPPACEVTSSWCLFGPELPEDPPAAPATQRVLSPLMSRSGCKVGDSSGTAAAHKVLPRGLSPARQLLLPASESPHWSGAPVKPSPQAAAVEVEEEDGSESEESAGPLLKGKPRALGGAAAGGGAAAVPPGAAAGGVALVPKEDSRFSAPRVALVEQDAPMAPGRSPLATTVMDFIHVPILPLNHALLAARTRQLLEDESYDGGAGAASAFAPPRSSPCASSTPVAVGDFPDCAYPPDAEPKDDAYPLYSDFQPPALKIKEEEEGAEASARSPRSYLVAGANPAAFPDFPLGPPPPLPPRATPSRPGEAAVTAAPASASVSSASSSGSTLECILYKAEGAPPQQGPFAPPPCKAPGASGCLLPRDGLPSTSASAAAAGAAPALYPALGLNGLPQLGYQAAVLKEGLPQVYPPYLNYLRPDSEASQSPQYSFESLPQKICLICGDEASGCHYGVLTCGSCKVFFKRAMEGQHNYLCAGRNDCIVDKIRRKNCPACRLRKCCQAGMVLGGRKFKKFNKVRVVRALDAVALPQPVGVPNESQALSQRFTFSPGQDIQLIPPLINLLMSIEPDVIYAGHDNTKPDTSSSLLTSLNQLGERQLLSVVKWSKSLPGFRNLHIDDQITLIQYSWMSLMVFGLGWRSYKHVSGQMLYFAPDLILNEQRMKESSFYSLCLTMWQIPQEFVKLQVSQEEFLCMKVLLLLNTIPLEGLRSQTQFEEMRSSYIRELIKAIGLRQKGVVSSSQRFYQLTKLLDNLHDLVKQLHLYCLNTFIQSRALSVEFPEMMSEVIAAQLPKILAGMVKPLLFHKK
Sequence of GR (P06537 whole entry): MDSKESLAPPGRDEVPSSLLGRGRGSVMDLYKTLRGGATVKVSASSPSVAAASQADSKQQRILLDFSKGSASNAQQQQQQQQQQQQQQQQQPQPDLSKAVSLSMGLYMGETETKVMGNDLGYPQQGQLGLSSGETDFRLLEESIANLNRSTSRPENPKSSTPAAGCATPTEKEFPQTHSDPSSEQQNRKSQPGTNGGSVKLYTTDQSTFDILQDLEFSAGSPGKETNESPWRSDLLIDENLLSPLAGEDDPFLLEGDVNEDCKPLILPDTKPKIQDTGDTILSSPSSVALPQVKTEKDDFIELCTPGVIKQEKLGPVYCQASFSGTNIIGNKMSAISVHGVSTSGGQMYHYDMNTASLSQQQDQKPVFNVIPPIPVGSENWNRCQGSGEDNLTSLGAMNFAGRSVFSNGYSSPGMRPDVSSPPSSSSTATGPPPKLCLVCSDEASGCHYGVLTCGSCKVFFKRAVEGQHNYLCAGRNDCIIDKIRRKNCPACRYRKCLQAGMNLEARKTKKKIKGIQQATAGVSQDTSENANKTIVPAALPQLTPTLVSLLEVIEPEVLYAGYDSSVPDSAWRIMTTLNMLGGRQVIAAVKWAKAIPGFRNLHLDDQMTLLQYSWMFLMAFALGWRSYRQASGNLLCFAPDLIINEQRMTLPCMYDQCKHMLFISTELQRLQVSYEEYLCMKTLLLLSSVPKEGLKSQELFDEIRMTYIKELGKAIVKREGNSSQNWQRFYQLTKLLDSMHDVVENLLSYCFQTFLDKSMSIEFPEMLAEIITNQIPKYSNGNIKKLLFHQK

## CC#C[C@]1(O)CC[C@H]2[C@@H]3CCC4=CC(=O)CCC4=C3[C@@H](c3ccc4c(c3)OCO4)C[C@@]21C [PT150, (11β,17β)-11-(1,3-benzodioxol-5-yl)-17-hydroxy-17-(1-propynyl)-estra-4,9-dien-3-one]
In vitro [1]
  CC50: 10.9 µM
In vitro [2]
  CC50: 44.3 µM
Cytosolic GRs [3]
  selectivity ratio (GR/PR): 57
[4]
  value for the cytosolic progesterone receptors (PR): 6.4%
GR
  block of corticosterone-induced GR translocation: able to block corticosterone-induced GR translocation
MDCK
  CC50: 37 µg/mL (≈ 85.9 µM)
Cytosolic GRs [5]
  bound to cytosolic GRs, value: 365%
Tacaribe TRVL11573
  EC50: 7.2 µM and 3.1 µg/mL
Cytotoxicity on CCRF-CEM; CCRF-CEM cells (T-lymphoblastic acute T cell leukemia), Cytotoxicity CC50, CCRF-CEM
  CC50: 15.4 µM
Cytotoxicity on CCRF-CEM; CCRF-CEM cells, CC50, Cytotoxicity control, CCRF-CEM, CellTiter MTS
  CC50: 15.4 µM
[6]; Cytotoxicity 50% CC50, Enterovirus D68 screen, Tables 5-6
  CC50: 10.2 µM
[6]; Enterovirus 68 screen, Table 4, read-out: CC50
  CC50: 10.2 µM
[6]; Enterovirus D68 screen, Neutral red, read-out: CC50
  CC50: 2.6 µg/mL
[6]; Enterovirus D68 screen, Visual, read-out: CC50
  CC50: 3.2 µg/mL
[7]
  embryos lost: ~100%
HG23
  CC50: 8.7 µM
RAW267.4; Example 11
  CC50: 34 µM

## CC#CC1(O)CCC2C3CCC4=CC(=NNC(N)=S)CCC4=C3C(c3ccc4c(c3)OCO4)CC21C.CC#CC1(O)CCC2C3CCC4=CC(=O)CCC4=C3C(c3ccc4c(c3)OCO4)CC21C.CC(C)=O.CCO.O (stereo not drawn) [PT155, ⅓ (11β,17β)-17-Hydroxy-11-[3,4-(methylenedioxy)phenyl]-17-(1-propyn-1-yl)estra-4,9-dien-3-one (ORG34517)×(2EZ)-2-{(11β,17β)-17-hydroxy-11-[3,4-(methylenedioxy)phenyl]-17-(1-propyn-1-yl)estra-4,9-dien-3-ylidene}hydrazinecarbothioamide [71.8% (E), 28.2% (Z)] hemihydrate×¾% acetone× ⅛ ethanol]
OM-10.1 cells; 0.01 μM
  % CC: 93.9%
  TOXICITY VALUES (Cell Titer 96): 0.707 O.D. @ 490/650 nm and 0.669 O.D. @ 490/650 nm and 0.567 O.D. @ 490/650 nm
OM-10.1 cells; 0.03 μM
  % CC: 105.6%
  TOXICITY VALUES (Cell Titer 96): 0.749 O.D. @ 490/650 nm and 0.794 O.D. @ 490/650 nm and 0.642 O.D. @ 490/650 nm
OM-10.1 cells; 0.10 μM
  % CC: 110.0%
  TOXICITY VALUES (Cell Titer 96): 0.867 O.D. @ 490/650 nm and 0.820 O.D. @ 490/650 nm and 0.590 O.D. @ 490/650 nm
OM-10.1 cells; 1.00 μM
  % CC: 119.25%
  TOXICITY VALUES (Cell Titer 96): 0.937 O.D. @ 490/650 nm and 0.911 O.D. @ 490/650 nm and 0.618 O.D. @ 490/650 nm
OM-10.1 cells; 3.16 μM
  % CC: 109.6%
  TOXICITY VALUES (Cell Titer 96): 0.896 O.D. @ 490/650 nm and 0.800 O.D. @ 490/650 nm and 0.572 O.D. @ 490/650 nm
OM-10.1 cells; 10.0 μM
  % CC: 105.7%
  TOXICITY VALUES (Cell Titer 96): 0.828 O.D. @ 490/650 nm and 0.761 O.D. @ 490/650 nm and 0.599 O.D. @ 490/650 nm
OM-10.1 cells; 31.6 μM
  % CC: 93.4%
  TOXICITY VALUES (Cell Titer 96): 0.714 O.D. @ 490/650 nm and 0.682 O.D. @ 490/650 nm and 0.536 O.D. @ 490/650 nm
OM-10.1 cells; 100 μM
  % CC: 112.5%
  TOXICITY VALUES (Cell Titer 96): 0.777 O.D. @ 490/650 nm and 0.775 O.D. @ 490/650 nm
OM-10.1 cells; OM-10.1
  TC 90%: >100 µM
  TC 95%: >100 µM
OM-10.1 cells; OM-10.1, Table 7
  CC50: > 100 µM
OM-10.1 cells; read-out: TC 50%, OM-10.1
  CC50: > 100 µM
Vero 76
  CC50: 45.4 µM
[8]; Neutral Red
  EC50: >55 µg/mL
[8]; [10]
  EC50: >22 µg/mL
PBMC
  CC50: 82.6 µM
Vero
  cellular growth at fixed 100 μM concentration: (96.1) %
[9]; Neutral Red (Cytopathic effect/Toxicity)
  EC50: 2.6 µg/mL
[9]; [10]
  EC50: 2.6 µg/mL
HIV-1 LAV; 0.01 μM
  % VC: 100.0%
  RT Values: 32320 cpm and 29982 cpm and 29144 cpm
HIV-1 LAV; 0.03 μM
  % VC: 107.7%
  RT Values: 33018 cpm and 33056 cpm and 32387 cpm
HIV-1 LAV; 0.10 μM
  % VC: 99.8%
  RT Values: 29801 cpm and 29663 cpm and 31726 cpm
HIV-1 LAV; 1.00 μM
  % VC: 82.2%
  RT Values: 23474 cpm and 26693 cpm and 24955 cpm
HIV-1 LAV; 3.16 μM
  % VC: 57.9%
  RT Values: 16156 cpm and 21122 cpm and 15662 cpm
HIV-1 LAV; 10.0 μM
  % VC: 28.9%
  RT Values: 8592 cpm and 7827 cpm and 10011 cpm
HIV-1 LAV; 31.6 μM
  % VC: 15.8%
  RT Values: 4254 cpm and 4765 cpm and 5466 cpm
HIV-1 LAV; 100 μM
  % VC: 0.8%
HIV-1 LAV; OM-10.1
  IC50: 4.33 µM
  IC90: 49.4 µM
  IC 95%: 72.4 µM
HIV-1 LAV; OM-10.1, Table 7, read-out: EC50
  EC50: 4.33 µM
HIV-1 LAV; OM-10.1, Table 7, read-out: EC90
  EC90: 49.4 µM
CCRF-CEM; Cytotoxicity control, CellTiter MTS
  CC50: 7.1 µM
CCRF-CEM; read-out: Cytotoxicity CC50
  CC50: 7.1 µM
RD; Enterovirus D68 screen, Neutral red
  CC50: 8.1 µg/mL
RD; Enterovirus D68 screen, Visual
  CC50: 3.2 µg/mL
RD; read-out: Cytotoxicity 50% CC50, Enterovirus D68 screen, Tables 5-6
  CC50: 5.8 µM
HuH-7
  CC50: 39.7 µM
RAW267.4; Example 11
  CC50: 34 µM
RAW267.4; Example 11, listed as 16-000163
  CC50: 35 µM
